Assay results from patent US20250101003A1, “SPIROCYCLIC CAV2.3 ANTAGONISTS” (LARIO THERAPEUTICS LIMITED, priority 2021, published 2025).

Biological target: Cav2.3 (Homo sapiens, UniProt Q15878)
Experiment: Human Cav2.3 channel calcium-influx assay
Type: cell-based
Conditions: HEK-293 T-Rex/Kir2.1/Cav2.3e-β4-α2δ1 cells, Fluo8 fluorescence, without pluronic acid; read-out: Cav2.3 (pIC50) (converted)
Experimental: HEK-293 T-Rex cells were transfected with pcDNA3.1-Kir2.1 to generate a stable cell line. After antibiotic selection, the obtained stable pools were analysed using FLIPR^TETRA (membrane potential assay), and a limiting dilution was performed and a HEK-293 T-Rex/Kir2.1 clone was selected. The clone was transfected with pcDNA3.1-Cav2.3e and pBud-Cav-β4-α2δ1 to generate a stable cell line where the Cav2.3e expression is inducible. After antibiotic selection, functional clone pool analysis and two successive limiting dilutions, the final clone underwent a qPCR analysis and a biophysical and pharmacological validation using patch-clamp.
A compound plate, containing 10 test compounds in eight-points dose response with n=4, was prepared. Test compounds dose response curves were prepared in automated fashion in 100% DMSO at CyBio Felix and starting from a stock solution in 100% DMSO; a defined volume was serially moved into destination wells pre-filled with the desired DMSO volume; stock solution concentration volumes were dependent on the final compounds concentrations to be tested and the final DMSO content used in the assay. For the assay test compounds dose response curves ranged from 30 μM and half log dilution with 0.3% final DMSO. In order to obtain the 8-points dose response curve all the concentrations were created by starting from a 10 mM DMSO stock solution and then moving 9.5 μL into a destination well pre-filled with 20.5 μL of 100% DMSO and repeating this step seven times. This initial step was done into 96 MTP plates, 10 compounds/plate. One 384 MTP was then reformatted to contain all the 10 compounds at 8 concentrations, quadruplicate data points. This so obtained 384 MTP compound plate served as source plate in a “mother to child” process with a CyBi®-Well dispenser in which 0.7 μL of compounds were moved into a destination plate pre-filled with 57.6 μL of Tyrode's buffer 0 mM K+, thus obtaining 4× concentrated compounds solution. In columns 1-2 and 23-24 the control wells were added. Both “source” compound plate and “destination” compound plate were barcoded and a relationship between the two plates was thus generated.
The day before the experiment, cells were detached by gentle wash with DPBS, followed by 5 min incubation at 37° C. with Trypsin solution. Detached cells were diluted with OptiMEM+Doxycycline at 0.2 μg/mL, counted and plated in Poly-D-Lysine coated black/clear bottom (15.000 c/well in 20 μl/well) by the use of a MATRIX WellMate dispenser. Plates were placed into a humidified incubator at 37° C. with 5% CO2 until the experimental day. 24 h after seeding 10 μL/well of 1.5× Fluo8 NW dye solution prepared in Tyrode's buffer 0 mM K^+ were added on top of the seeding medium. Cell plates were incubated for 40-60 min at RT in the dark. We then Injected off-line 10 μL/well of test compounds and controls 4× concentrated in Tyrode's Buffer 0 mM K+ with the CyBi®-Well instrument. Cell plates were incubated 3 minutes at RT. Finally, we injected 20 μL/well of 3× concentrated activator solution (K20-Na130-Ca2 buffer: 20 mM KCl, 130 mM NaCl, 2 mM CaCl2, 10 mM HEPES, 10 mM Glucose, final concentrations, prepared starting from “KO-Na150-Ca2” and “K150-Na0-Ca2” buffers) at FDSS7000EX instrument and read emitted fluorescence for 130 seconds.
Data analysis was performed with Genedata Screener® software and reported compounds activity as % effect in relation to the normalization standards. The Kinetic Response Value (KRV) is calculated as follows:
KRV=Maximal fluorescence recorded from second 5 to second 130 minus baseline fluorescence, computed as average from second 1 to second 2, of the kinetic trace. The KRV was normalized versus Neutral Controls and Inhibitor Controls in order to obtain the Activity[%] for each well. […] Therefore, the compound activity values were scaled (based on the two references) to a common range (two-point normalization). […]

Chain of Cav2.3 (Q15878 1-747 limits assumed): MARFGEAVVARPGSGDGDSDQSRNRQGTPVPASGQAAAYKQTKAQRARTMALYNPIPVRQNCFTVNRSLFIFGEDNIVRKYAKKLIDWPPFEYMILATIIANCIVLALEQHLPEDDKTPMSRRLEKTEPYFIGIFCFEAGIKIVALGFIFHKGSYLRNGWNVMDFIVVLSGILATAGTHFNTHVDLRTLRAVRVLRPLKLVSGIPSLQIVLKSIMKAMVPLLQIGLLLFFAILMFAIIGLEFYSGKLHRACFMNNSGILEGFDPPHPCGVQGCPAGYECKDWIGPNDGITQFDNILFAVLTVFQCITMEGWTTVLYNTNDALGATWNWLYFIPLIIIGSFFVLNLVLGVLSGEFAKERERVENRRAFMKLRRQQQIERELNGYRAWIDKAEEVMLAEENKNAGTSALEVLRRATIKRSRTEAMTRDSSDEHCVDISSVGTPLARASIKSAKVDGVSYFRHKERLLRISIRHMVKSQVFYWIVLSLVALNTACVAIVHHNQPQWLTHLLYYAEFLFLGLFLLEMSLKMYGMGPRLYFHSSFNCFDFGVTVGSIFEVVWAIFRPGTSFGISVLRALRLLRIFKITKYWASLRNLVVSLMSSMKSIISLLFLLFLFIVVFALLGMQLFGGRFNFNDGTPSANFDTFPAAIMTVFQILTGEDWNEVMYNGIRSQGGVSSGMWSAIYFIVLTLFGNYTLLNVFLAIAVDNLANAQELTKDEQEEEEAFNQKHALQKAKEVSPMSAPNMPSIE
Chain of Cav2.3 (Q15878 1126-2313 limits assumed): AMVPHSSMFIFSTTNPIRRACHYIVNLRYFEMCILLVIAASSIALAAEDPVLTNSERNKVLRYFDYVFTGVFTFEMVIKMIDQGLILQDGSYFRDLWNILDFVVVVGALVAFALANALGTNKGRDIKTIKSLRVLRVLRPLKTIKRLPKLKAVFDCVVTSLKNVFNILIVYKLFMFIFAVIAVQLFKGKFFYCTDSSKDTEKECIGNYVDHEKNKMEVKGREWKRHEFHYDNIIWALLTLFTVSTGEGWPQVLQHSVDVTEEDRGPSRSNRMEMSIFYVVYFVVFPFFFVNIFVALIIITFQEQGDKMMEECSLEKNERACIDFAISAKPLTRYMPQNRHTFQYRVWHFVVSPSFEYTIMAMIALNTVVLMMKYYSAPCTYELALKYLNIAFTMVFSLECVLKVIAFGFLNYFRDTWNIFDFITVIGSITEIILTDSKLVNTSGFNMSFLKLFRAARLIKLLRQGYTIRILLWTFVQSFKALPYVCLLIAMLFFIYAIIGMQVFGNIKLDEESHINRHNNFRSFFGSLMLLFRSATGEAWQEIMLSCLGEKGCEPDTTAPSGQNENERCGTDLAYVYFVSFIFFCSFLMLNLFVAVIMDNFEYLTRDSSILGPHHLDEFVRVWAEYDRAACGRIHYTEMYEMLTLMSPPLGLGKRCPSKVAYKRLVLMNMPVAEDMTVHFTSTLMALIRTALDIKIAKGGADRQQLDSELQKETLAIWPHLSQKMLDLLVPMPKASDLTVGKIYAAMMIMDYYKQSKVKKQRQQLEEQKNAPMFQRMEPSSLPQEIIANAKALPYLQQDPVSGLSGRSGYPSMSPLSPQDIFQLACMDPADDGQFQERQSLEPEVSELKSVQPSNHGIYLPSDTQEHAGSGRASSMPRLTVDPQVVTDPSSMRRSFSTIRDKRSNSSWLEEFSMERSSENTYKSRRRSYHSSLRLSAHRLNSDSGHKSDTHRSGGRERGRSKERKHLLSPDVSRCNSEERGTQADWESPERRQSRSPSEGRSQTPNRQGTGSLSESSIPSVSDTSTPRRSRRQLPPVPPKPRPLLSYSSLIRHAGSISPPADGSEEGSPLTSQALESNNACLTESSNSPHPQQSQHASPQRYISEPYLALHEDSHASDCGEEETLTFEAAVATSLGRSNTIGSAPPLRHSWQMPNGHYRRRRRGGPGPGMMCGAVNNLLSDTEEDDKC

Row | IC50 [µM] | Compound
1 | 9.33 | CCC1CC2(CCC2)CN1S(=O)(=O)c1ccc2c(c1)OC(F)(F)O2 (centres unmarked) [Example 50, 6-((2,2-Difluorobenzo[d][1,3]dioxol-5-yl)sulfonyl)-7-ethyl-6-azaspiro[3.4]octane]
2 | 6.31 | CC1CC2(CCC2)CN1S(=O)(=O)c1ccc2ccccc2n1 (centres unmarked) [Example 79, 2-((7-Methyl-6-azaspiro[3.4]octan-6-yl)sulfonyl)quinoline]
3 | 4.79 | CC1CCC2(CCC2)CN1S(=O)(=O)c1cccs1 (centres unmarked) [Example 60, 7-Methyl-6-(thiophen-2-ylsulfonyl)-6-azaspiro[3.5]nonane]
4 | 2 | CC(C)C(=O)N1Cc2ccc(S(=O)(=O)N3CC4(CCC4)CC3C)cc2C1 (centres unmarked) [Example 52, 2-methyl-1-(5-((7-methyl-6-azaspiro[3.4]octan-6-yl)sulfonyl)isoindolin-2-yl)propan-1-one]
5 | 8.32 | CC1CC2(CCC2)CN1S(=O)(=O)c1cccs1 (single isomer, unassigned) [Example 103, 7-Methyl-6-(thiophen-2-ylsulfonyl)-6-azaspiro[3.4]octane]
6 | 2.04 | Cc1noc(C)c1C(=O)N1CCc2ccc(S(=O)(=O)N3CC4(CCC4)CC3C)cc2C1 (centres unmarked) [Example 93, (3,5-Dimethylisoxazol-4-yl)(7-((7-methyl-6-azaspiro[3.4]octan-6-yl)sulfonyl)-3,4-dihydroisoquinolin-2(1H)-yl)methanone]
7 | 2.75 | CCc1nc2cc(S(=O)(=O)N3CC4(CCC4)CC3CC)ccc2o1 (centres unmarked) [Example 51, 2-Ethyl-5-((7-ethyl-6-azaspiro[3.4]octan-6-yl)sulfonyl)benzo[d]oxazole]
8 | 19.1 | CC1CC2(CCC2)CN1S(=O)(=O)c1cccc2c1CN(C(=O)C(F)(F)F)CC2 (centres unmarked) [Example 85, 2,2,2-Trifluoro-1-(8-((7-methyl-6-azaspiro[3.4]octan-6-yl)sulfonyl)-3,4-dihydroisoquinolin-2(1H)-yl)ethan-1-one]
9 | 1.78 | CC1CC2(CCC2)CN1S(=O)(=O)c1ccc2c(c1)CN(C(=O)C(F)(F)F)CC2 (single isomer, unassigned) [Example 19, 2,2,2-Trifluoro-1-(7-((7-methyl-6-azaspiro[3.4]octan-6-yl)sulfonyl)-3,4-dihydroisoquinolin-2(1H)-yl)ethan-1-one]
10 | 2.4 | CCC1CC2(CCC2)CN1S(=O)(=O)c1ccc2ccoc2c1 (centres unmarked) [Example 91, 6-(Benzofuran-6-ylsulfonyl)-7-ethyl-6-azaspiro[3.4]octane]
11 | 2.82 | Cc1ccnc2cc(S(=O)(=O)N3CC4(CCC4)CC3C)ccc12 (centres unmarked) [Example 80, 4-Methyl-7-((7-methyl-6-azaspiro[3.4]octan-6-yl)sulfonyl)quinoline]
12 | 1.91 | CCC1CC2(CCCC2)CN1S(=O)(=O)c1cccs1 (single isomer, unassigned) [Example 99, 3-ethyl-2-(thiophen-2-ylsulfonyl)-2-azaspiro[4.4]nonane]
13 | 3.39 | CC1CC2(CCC2)CN1S(=O)(=O)c1ccco1 (single isomer, unassigned) [Example 38, 6-(furan-2-ylsulfonyl)-7-methyl-6-azaspiro[3.4]octane]
14 | 9.33 | CCOc1ccc2nc(S(=O)(=O)N3CC4(CCC4)CC3C)sc2c1 (centres unmarked) [Example 96, 6-Ethoxy-2-((7-methyl-6-azaspiro[3.4]octan-6-yl)sulfonyl)benzo[d]thiazole]
15 | 11.5 | CC1CC2(CCC2)CN1S(=O)(=O)c1ccc(Cl)s1 (centres unmarked) [Example 108, 6-((5-Chlorothiophen-2-yl)sulfonyl)-7-methyl-6-azaspiro[3.4]octane]
16 | 5.01 | CC1CC2(CCC2)CN1S(=O)(=O)c1ccc(F)s1 (centres unmarked) [Example 110, 6-((5-fluorothiophen-2-yl)sulfonyl)-7-methyl-6-azaspiro[3.4]octane]
17 | 0.676 | CCC1CC2(CCC2)CN1S(=O)(=O)c1ccc2c(c1)S(=O)(=O)CC2 (single isomer, unassigned) [Example 62, 6-((7-Ethyl-6-azaspiro[3.4]octan-6-yl)sulfonyl)-2,3-dihydrobenzo[b]thiophene 1,1-dioxide]
18 | 2 | CCC1CC2(CCC2)CN1S(=O)(=O)c1ccnc(OC)c1 (centres unmarked) [Example 87, 7-Ethyl-6-((2-methoxypyridin-4-yl)sulfonyl)-6-azaspiro[3.4]octane]

More lines, now with the values behind:

Row | Compound | IC50 [µM]
19 | CCC1CC2(CCC2)CN1S(=O)(=O)c1ccco1 (centres unmarked) [Example 72, 7-Ethyl-6-(furan-2-ylsulfonyl)-6-azaspiro[3.4]octane] | 4.37
20 | CCC1CC2(CCC2)CN1S(=O)(=O)c1cccs1 (centres unmarked) [Example 69, 7-Ethyl-6-(thiophen-2-ylsulfonyl)-6-azaspiro[3.4]octane] | 2.51
21 | CC1CC2(CCC2)CN1S(=O)(=O)c1ccc2c(c1)OCCO2 (centres unmarked) [Example 5, 6-((2,3-Dihydrobenzo[b][1,4]dioxin-6-yl)sulfonyl)-7-methyl-6-azaspiro[3.4]octane] | 2.95
22 | CC1CC2(CCC2)CN1S(=O)(=O)c1ccc2c(c1)CN(c1ccccc1)CC2 (centres unmarked) [Example 29, 7-((7-Methyl-6-azaspiro[3.4]octan-6-yl)sulfonyl)-2-phenyl-1,2,3,4-tetrahydroisoquinoline] | 4.79
23 | CC1CC2(CCC2)CN1S(=O)(=O)c1ccncc1 (single isomer, unassigned) [Example 12, 7-Methyl-6-(pyridin-4-ylsulfonyl)-6-azaspiro[3.4]octane] | 6.61
24 | CC1CC2(CCC2)CN1S(=O)(=O)c1scnc1CO (centres unmarked) [Example 90, (5-((7-Methyl-6-azaspiro[3.4]octan-6-yl)sulfonyl)thiazol-4-yl)methanol] | 11.2
25 | CC(C)Oc1cc(S(=O)(=O)N2CC3(CCC3)CC2C)ccn1 (centres unmarked) [Example 84, 6-((2-Isopropoxypyridin-4-yl)sulfonyl)-7-methyl-6-azaspiro[3.4]octane] | 4.47
26 | Cc1nc(C)c(S(=O)(=O)N2CC3(CCC3)CC2C)s1 (single isomer, unassigned) [Example 107, 2,4-dimethyl-5-((7-methyl-6-azaspiro[3.4]octan-6-yl)sulfonyl)thiazole] | 6.76
27 | CC1CC2(CCC2)CN1S(=O)(=O)c1ccc2c(c1)CN(C(=O)C(F)(F)F)CC2 (centres unmarked) [Example 18, 2,2,2-Trifluoro-1-(7-((7-methyl-6-azaspiro[3.4]octan-6-yl)sulfonyl)-3,4-dihydroisoquinolin-2(1H)-yl)ethan-1-one] | 2.45
28 | CC1CC2(CCC2)CN1S(=O)(=O)c1cncs1 (centres unmarked) [Example 109, 5-((7-Methyl-6-azaspiro[3.4]octan-6-yl)sulfonyl)thiazole] | 3.98
29 | CCC1CC2(CCC2)CN1S(=O)(=O)c1ccc2c(c1)S(=O)(=O)CC2 (centres unmarked) [Example 61, 6-((7-Ethyl-6-azaspiro[3.4]octan-6-yl)sulfonyl)-2,3-dihydrobenzo[b]thiophene 1,1-dioxide] | 1.78
30 | CC1CC2(CCC2)CN1S(=O)(=O)c1ccc2c(c1)OCCCO2 (centres unmarked) [Example 4, 6-((3,4-Dihydro-2H-benzo[b][1,4]dioxepin-7-yl)sulfonyl)-7-methyl-6-azaspiro[3.4]octane] | 4.17
31 | CC1CC2(CCC2)CN1S(=O)(=O)c1nccn1C (centres unmarked) [Example 3, 7-Methyl-6-((1-methyl-1H-imidazol-2-yl)sulfonyl)-6-azaspiro[3.4]octane] | 30.2
32 | CCC1CC2(CCC2)CN1S(=O)(=O)c1ccc2c(c1)CN(C(=O)C(C)C)CC2 (centres unmarked) [Example 34, 1-(7-((7-Ethyl-6-azaspiro[3.4]octan-6-yl)sulfonyl)-3,4-dihydroisoquinolin-2(1H)-yl)-2-methylpropan-1-one] | 1.1
